Data from patent US20080262008A1, “CRYSTALLINE FORMS AND POLYMORPHS OF N-(3-(DIMETHYLAMINO)PROPYL)-4-(4-(3-FLUORO-4-METHOXYPHENYL) PYRIMIDIN-2-YLAMINO) BENZENESULFONAMIDE AS SUCCINATE SALTS” (Wyeth, priority 2007, published 2008).

Experiments:
[1] = water solubility; format: physicochemical
[2] = solubility of the free base in solvents; format: physicochemical; conditions: free base form
Protocol: For example, acetone is needed to dissolve the free base at 50° C. […] HCl, phosphoric acid, tartaric acid, acetic acid, D-glucoronic acid and succinic acid were used to prepare pharmaceutically acceptable salts of compound 3. One crystalline form of compound 3 as a mono-succinate salt and five crystalline polymorphs of compound 3 as a hemi-succinate salt are provided in the Examples.

COc1ccc(-c2ccnc(Nc3ccc(S(=O)(=O)NCCCN(C)C)cc3)n2)cc1F [Compound 3, N-(3-(dimethylamino)propyl)-4-(4-(3-fluoro-4-methoxyphenyl)pyrimidin-2-ylamino)benzenesulfonamide]
Solubility in water ([1]; free base, thermogravimeteric method): not detectable
solubility in THF, DMSO and DMF [2]: high
solubility in group 3 solvents, including water [2]: low

COc1ccc(-c2ccnc(Nc3ccc(S(=O)(=O)NCCCN(C)C)cc3)n2)cc1F.O=C(O)CCC(=O)O [Example 1, Mono-Succinate Salt of N-(3-(dimethylamino)propyl)-4-(4-(3-fluoro-4-methoxyphenyl)pyrimidin-2-ylamino)benzenesulfonamide]
water solubility (stated in words) [1]: water soluble
